pIC50: −log10 of the molar value. Like-named read-outs stand apart in the source and are kept apart here.
Columns and labels:
[1] = doses of 5, 10 and 20 mg daily; cited from earlier work
[2] = wild-type versus CB1 receptor knockout mice; cited from earlier work
[3] = target: T1, human cannabis CB1 receptor (Homo sapiens, UniProt P21554); assay: Affinity for cannabinoid CB1 receptors, [3H]-CP-55,940 radioligand binding on HEK cell membranes
T1 construct: expressed in transfected cells; host or cells: human embryonic kidney (HEK) cells, Semliki Forest Virus system
T1 sequence (P21554 whole entry): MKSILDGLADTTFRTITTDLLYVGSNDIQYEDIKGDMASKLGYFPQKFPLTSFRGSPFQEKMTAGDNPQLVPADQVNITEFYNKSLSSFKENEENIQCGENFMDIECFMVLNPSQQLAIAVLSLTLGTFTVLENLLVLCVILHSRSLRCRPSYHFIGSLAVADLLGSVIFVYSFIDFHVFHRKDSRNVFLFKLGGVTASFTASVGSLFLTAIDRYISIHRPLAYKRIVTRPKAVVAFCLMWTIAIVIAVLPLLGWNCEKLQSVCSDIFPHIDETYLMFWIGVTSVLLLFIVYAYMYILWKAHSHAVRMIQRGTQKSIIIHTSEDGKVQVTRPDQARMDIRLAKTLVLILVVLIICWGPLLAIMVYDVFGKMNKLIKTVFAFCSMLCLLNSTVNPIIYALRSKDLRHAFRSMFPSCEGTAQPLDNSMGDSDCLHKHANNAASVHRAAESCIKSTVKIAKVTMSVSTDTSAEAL
Method: The affinity of the compounds of the invention for cannabinoid CB1 receptors was determined using membrane preparations of human embryonic kidney (HEK) cells in which the human cannabis CB1 receptor is transiently transfected using the Semliki Forest Virus system in conjunction with [3H]-CP-55,940 as radioligand. After incubation of a freshly prepared cell membrane preparation with the [3H]-ligand, with or without addition of compounds of the invention, separation of bound and free ligand was performed by filtration over glassfiber filters. Radioactivity on the filter was measured by liquid scintillation counting.
The compounds of formula (I) show an excellent affinity for the CB1 receptor, determined with the experimental conditions described in Devane et. al. Mol. Pharmacol. 34 (1988) 605-613.

[4] = affinity for the CB1 receptor, HEK membranes, [3H]-CP-55,940, read-out: IC50

For `Cc1c(C(=O)NN2CCCCC2)nn(-c2ccc(Cl)cc2Cl)c1-c1ccc(Cl)cc1` [SR 141716], the “body weight compared to placebo” value [1] is given as “significantly reduced body weight” and the food intake [2] is given as “reduces food intake in wild-type but not knockout mice”.

Work on `CC(Oc1ccccc1)c1nc2ccc(N3CCN(S(=O)(=O)N(C)C)CC3)cc2n1Cc1ccc(Cl)cc1` (centres unmarked) [Example 51, 4-[3-(4-chloro-benzyl)-2-(1-phenoxy-ethyl)-3H-benzoimidazol-5-yl]-piperazine-1-sulfonic acid dimethylamide] yielded a pIC50 [3] of 7.22.

In the case of `CCCCNC(=O)c1ccc2c(c1)nc(COc1ccccc1)n2Cc1ccc(OC(F)(F)F)cc1` [Example 61, 2-Phenoxymethyl-1-(4-trifluoromethoxy-benzyl)-1H-benzoimidazole-5-carboxylic acid butyl-amide], the pIC50 [3, 4] was 7.52.

`CCCCNC(=O)c1ccc2c(c1)cc(COc1ccccc1)n2Cc1ccc(OC(F)(F)F)cc1` [Example 101, 2-phenoxymethyl-1-(4-trifluoromethoxy-benzyl)-1H-indole-5-carboxylic acid butylamide] gave a pIC50 [3, 4] of 7.70.
